Assay results: US11219625B2, “Inhibitors of N-linked glycosylation and methods using same” (YALE UNIVERSITY, priority 2015, dated 2022)

How the values were obtained:
[1] = tested on: H3255 cells; assay: MTT proliferation assay, H3255; type: cell-based; conditions: H3255, 10 μM NGI-1, 5 d, p<0.05
Method: FIGS. 7A-7D illustrate EGFR kinase domain mutant cell lines growth inhibition and cell cycle arrest response to NGI-1. FIG. 7A illustrates MTT assays to determine the effects of NGI-1 on growth of H3255 cells. FIG. 7B illustrates MIT assays to determine the effects of NGI-1 on growth of HCC827 cells. EGFR kinase domain mutant cell lines H3255 and HCC827 cells were untreated or treated with 10 μM NGI-1 for 5 d. […] FIG. 7C illustrates cell cycle distribution of H3255 after 24 h NGI-1 treatment for 24 h determined by flow cytometry. FIG. 7D illustrates cell cycle distribution of HCC827 after 24 h NGI-1 treatment for 24 h determined by flow cytometry.
Growth rates were determined by CellTiter 96 NonRadioactive Cell Proliferation Assay (Promega; Madison, Wis. USA) according to the manufacturer's directions. Briefly, NSCLC cells (2×10^3) untreated or treated with […] NGI-1 or 1 μM Tn, were seeded in triplicates in 96-wells plates and grown in culture medium containing […]. Cell numbers were estimated after 0, 3, and 5 days by adding MTT [(3-(4,5-Dimethylthiazol-2-yl)-2,5-diphenyltetrazolium bromide] reagent to the wells 4 hours before taking the spectrophotometric reading (absorbance at 570 nm).

[2] = tested on: EGFR; assay: Western blot of EGFR phosphorylation, PC9 cells; type: cell-based; conditions: PC9, 10 μM NGI-1, 1 day
Method: FIGS. 4A-4H illustrate the finding that NGI-1 blocks RTK driven proliferation. FIG. 4A illustrates western blot analysis of EGFR phosphorylation (Y1173) and gel mobility in PC9 (EGFR-mutant) and A549 (k-ras mutant) NSCLC cells after 10 μM NGI-1 treatment for 24 h. […] Actin expression was used as a control for protein loading. FIG. 4B illustrates MTT assays results of PC9 following treatment with 10 μM NGI-1 or 1 μM tunicamycin for a total of 5 d. Relative proliferation id reported in fold increase from day 0. FIG. 4C illustrates MTT assays results of A549 following treatment with 10 μM NGI-1 or 1 μM tunicamycin for a total of 5 d. Relative proliferation id reported in fold increase from day 0. FIG. 4D illustrates protein phosphorylation profiles of PC9 cells analyzed by phospho-protein array to assess the response of PC9 to 10 μM NGI-1 for 24 h. FIG. 4E illustrates protein phosphorylation profiles of A549 cells analyzed by phospho-protein array to assess the response of A549 to 10 μM NGI-1 for 24 h. FIG. 4F illustrates western blot analysis of FGFR phosphorylation (Y653/654) and gel mobility for H1581 (TKI sensitive) and H2444 (TKI insensitive) NSCLC cell lines. […] FIG. 4G illustrates MTT assays for H1581 cells treated with 10 μM NGI-1 for 5 d. Asterisk (***) indicates a significant difference p<0.001 for MTT. FIG. 4H illustrates MTT assays for H2444 cells treated with 10 μM NGI-1 for 5 d. […]

**Q.** What does the source list for `Cc1cnc(NC(=O)c2cc(S(=O)(=O)N(C)C)ccc2N2CCCC2)s1` [NGI-1, 5-(N,N-Dimethylsulfamoyl)-N-(5-methylthiazol-2-yl)-2-(pyrrolidin-1-yl)benzamide]?
**A.** reduction of proliferation, MTT [1]: > 45%; EGFR phosphorylation [2]: blocked phosphorylation of KD mutant EGFR
